This test has as its system monocytic THP1 cells infected with HIV VSV-G pseudotyped GFP-NEF reporter virus. The test is described as follows: cells. The settings on record: Human immunodeficiency virus 1, THP-1, 24 h. The format is cell-based.

This note sets out measurements from patent publication US20250333424A1, “ANTIVIRAL COMPOUNDS” (Gilead Sciences, Inc., priority 2024, published 2025).

The EC50 is the concentration at which the effect is half-maximal. The low end stands for higher potency in that assay, the high end for lower potency in that assay. `Cc1cc(/C=C/C#N)cc(C)c1Oc1nc(NC23CC(C#N)(C2)C3)nc2nc(Nc3cccnc3)[nH]c12` [Compound 69, (E)-3-((6-(4-(2-cyanovinyl)-2,6-dimethylphenoxy)-8-(pyridin-3-ylamino)-7H-purin-2-yl)amino)bicyclo[1.1.1]pentane-1-carbonitrile] came in with an EC50 of 496 nM.
With `Cc1cc(/C=C/C#N)cc(C)c1Oc1nc(NC23CC(C#N)(C2)C3)nc2nc(Nc3ccccc3)[nH]c12` [Compound 70, (E)-3-((6-(4-(2-cyanovinyl)-2,6-dimethylphenoxy)-8-(phenylamino)-7H-purin-2-yl)amino)bicyclo[1.1.1]pentane-1-carbonitrile] the figure was 415 nM; with `Cc1cc(/C=C/C#N)cc(C)c1Oc1nc(NC23CC(C#N)(C2)C3)nc2nc(-c3cnoc3)[nH]c12` [Compound 71, (E)-3-((6-(4-(2-cyanovinyl)-2,6-dimethylphenoxy)-8-(isoxazol-4-yl)-7H-purin-2-yl)amino)bicyclo[1.1.1]pentane-1-carbonitrile], 274 nM.
With `Cc1cc(/C=C/C#N)cc(C)c1Oc1nc(NC23CC(C#N)(C2)C3)nc2nc(-c3cncnc3)[nH]c12` [Compound 72, (E)-3-((6-(4-(2-cyanovinyl)-2,6-dimethylphenoxy)-8-(pyrimidin-5-yl)-7H-purin-2-yl)amino)bicyclo[1.1.1]pentane-1-carbonitrile] the figure was 308 nM; with `Cc1cc(/C=C/C#N)cc(C)c1Oc1nc(NC23CC(C#N)(C2)C3)nc2nc(-c3ccno3)[nH]c12` [Compound 73, (E)-3-((6-(4-(2-cyanovinyl)-2,6-dimethylphenoxy)-8-(isoxazol-5-yl)-7H-purin-2-yl)amino)bicyclo[1.1.1]pentane-1-carbonitrile], 285 nM; with `Cc1cc(/C=C/C#N)cc(C)c1Oc1nc(NC23CC(C#N)(C2)C3)nc2nn(-c3ccccc3)cc12` [Compound 74, (E)-3-((4-(4-(2-cyanovinyl)-2,6-dimethylphenoxy)-2-phenyl-2H-pyrazolo[3,4-d]pyrimidin-6-yl)amino)bicyclo[1.1.1]pentane-1-carbonitrile], 162 nM.
To `Cc1cc(/C=C/C#N)cc(C)c1Oc1nc(NC23CC(C#N)(C2)C3)nc2c1CCC2(F)F` [Compound 79, (E)-3-((4-(4-(2-cyanovinyl)-2,6-dimethylphenoxy)-7,7-difluoro-6,7-dihydro-5H-cyclopenta[d]pyrimidin-2-yl)amino)bicyclo[1.1.1]pentane-1-carbonitrile] belongs 33.2 nM; to `Cc1cc(/C=C/C#N)cc(C)c1Oc1nc(NC23CC(C#N)(C2)C3)nc2nnn(C)c12` [Compound 81, (E)-3-((7-(4-(2-cyanovinyl)-2,6-dimethylphenoxy)-1-methyl-11H-[1,2,3]triazolo[4,5-d]pyrimidin-5-yl)amino)bicyclo[1.1.1]pentane-1-carbonitrile], 35.6 nM.
Take `Cc1cc(/C=C/C#N)cc(C)c1Oc1nc(NC23CC(C#N)(C2)C3)nc2nn(C)nc12` [Compound 82, (E)-3-((7-(4-(2-cyanovinyl)-2,6-dimethylphenoxy)-2-methyl-2H-[1,2,3]triazolo[4,5-d]pyrimidin-5-yl)amino)bicyclo[1.1.1]pentane-1-carbonitrile]: the EC50 was found to be 79 nM.
With `Cc1cc(/C=C/C#N)cc(C)c1Oc1nc(NC23CC(C#N)(C2)C3)nc2nn(CC(F)F)c(C)c12` [Compound 83, (E)-3-((4-(4-(2-cyanovinyl)-2,6-dimethylphenoxy)-2-(2,2-difluoroethyl)-3-methyl-2H-pyrazolo[3,4-d]pyrimidin-6-yl)amino)bicyclo[11.1.1]pentane-1-carbonitrile] the figure was 162 nM; with `Cc1cc(/C=C/C#N)cc(C)c1Oc1nc(NC23CC(C#N)(C2)C3)nc2nn(CC(F)(F)F)c(C)c12` [Compound 84, (E)-3-((4-(4-(2-cyanovinyl)-2,6-dimethylphenoxy)-3-methyl-2-(2,2,2-trifluoroethyl)-2H-pyrazolo[3,4-d]pyrimidin-6-yl)amino)bicyclo[1.1.1]pentane-1-carbonitrile], 370 nM.
The compound `Cc1cc(/C=C/C#N)cc(C)c1Oc1nc(NC23CC(C#N)(C2)C3)nc2nn(C)c(C)c12` [Compound 86, (E)-3-((4-(4-(2-cyanovinyl)-2,6-dimethylphenoxy)-2,3-dimethyl-2H-pyrazolo[3,4-d]pyrimidin-6-yl)amino)bicyclo[1.1.1]pentane-1-carbonitrile] yielded an EC50 of 18.3 nM.
With `Cc1cc(/C=C/C#N)cc(C)c1Oc1nc(NC23CC(C#N)(C2)C3)nc2nn(C)c(I)c12` [Compound 87, (E)-3-((4-(4-(2-cyanovinyl)-2,6-dimethylphenoxy)-3-iodo-2-methyl-2H-pyrazolo[3,4-d]pyrimidin-6-yl)amino)bicyclo[1.1.1]pentane-1-carbonitrile] the figure was 25.1 nM; with `C=Cc1c2c(Oc3c(C)cc(/C=C/C#N)cc3C)nc(NC34CC(C#N)(C3)C4)nc2nn1C` [Compound 88, (E)-3-((4-(4-(2-cyanovinyl)-2,6-dimethylphenoxy)-2-methyl-3-vinyl-2H-pyrazolo[3,4-d]pyrimidin-6-yl)amino)bicyclo[1.1.1]pentane-1-carbonitrile], 23.4 nM.
With `Cc1cc(/C=C/C#N)cc(C)c1Oc1nc(NC23CC(C#N)(C2)C3)nc2[nH]nc(Br)c12` [Compound 90, (E)-3-((3-bromo-4-(4-(2-cyanovinyl)-2,6-dimethylphenoxy)-1H-pyrazolo[3,4-d]pyrimidin-6-yl)amino)bicyclo[1.1.1]pentane-1-carbonitrile] the figure was 25.4 nM; with `Cc1cc(/C=C/C#N)cc(C)c1Oc1nc(NC23CC(C#N)(C2)C3)nc2[nH]nc(C(F)F)c12` [Compound 91, (E)-3-((4-(4-(2-cyanovinyl)-2,6-dimethylphenoxy)-3-(difluoromethyl)-1H-pyrazolo[3,4-d]pyrimidin-6-yl)amino)bicyclo[1.1.1]pentane-1-carbonitrile], 42.3 nM.
With `Cc1cc(/C=C/C#N)cc(C)c1Oc1nc(NC23CC(C#N)(C2)C3)nc2nn(C)c(C(F)F)c12` [Compound 92, (E)-3-((4-(4-(2-cyanovinyl)-2,6-dimethylphenoxy)-3-(difluoromethyl)-2-methyl-2H-pyrazolo[3,4-d]pyrimidin-6-yl)amino)bicyclo[1.1.1]pentane-1-carbonitrile] the figure was 26.3 nM; with `Cc1cc(/C=C/C#N)cc(C)c1Oc1nc(NC23CC(C#N)(C2)C3)nc2c1c(C(F)F)nn2C` [Compound 93, (E)-3-((4-(4-(2-cyanovinyl)-2,6-dimethylphenoxy)-3-(difluoromethyl)-1-methyl-1H-pyrazolo[3,4-d]pyrimidin-6-yl)amino)bicyclo[1.1.1]pentane-1-carbonitrile], 37.7 nM.
`Cc1cc(/C=C/C#N)cc(C)c1Oc1nc(NC23CC(C#N)(C2)C3)nc2[nH]nc(Cl)c12` [Compound 94, (E)-3-((3-chloro-4-(4-(2-cyanovinyl)-2,6-dimethylphenoxy)-1H-pyrazolo[3,4-d]pyrimidin-6-yl)amino)bicyclo[1.1.1]pentane-1-carbonitrile] came in with an EC50 of 72.5 nM.
With `CNC(=O)Cn1nc2nc(NC34CC(C#N)(C3)C4)nc(Oc3c(C)cc(/C=C/C#N)cc3C)c2c1C` [Compound 98, (E)-2-(6-((3-cyanobicyclo[1.1.1]pentan-1-yl)amino)-4-(4-(2-cyanovinyl)-2,6-dimethylphenoxy)-3-methyl-2H-214-pyrazolo[3,4-d]pyrimidin-2-yl)-N-methylacetamide] the figure was 94.3 nM.
On to `CNC(=O)Cn1nc(C)c2c(Oc3c(C)cc(/C=C/C#N)cc3C)nc(NC34CC(C#N)(C3)C4)nc21` [Compound 99, (E)-2-(6-((3-cyanobicyclo[1.1.1]pentan-1-yl)amino)-4-(4-(2-cyanovinyl)-2,6-dimethylphenoxy)-3-methyl-1H-pyrazolo[3,4-d]pyrimidin-1-yl)-N-methylacetamide], for which the EC50 was 37.1 nM.
With `Cc1cc(/C=C/C#N)cc(C)c1Oc1nc(NC23CC(C#N)(C2)C3)nc2c1c(C)nn2CC#N` [Compound 100, (E)-3-((1-(cyanomethyl)-4-(4-(2-cyanovinyl)-2,6-dimethylphenoxy)-3-methyl-11H-pyrazolo[3,4-d]pyrimidin-6-yl)amino)bicyclo[1.1.1]pentane-1-carbonitrile] the figure was 36.1 nM.
`CNC(=O)CCn1nc(C)c2c(Oc3c(C)cc(/C=C/C#N)cc3C)nc(NC34CC(C#N)(C3)C4)nc21` [Compound 101, (E)-3-(6-((3-cyanobicyclo[1.1.1]pentan-1-yl)amino)-4-(4-(2-cyanovinyl)-2,6-dimethylphenoxy)-3-methyl-1H-pyrazolo[3,4-d]pyrimidin-1-yl)-N-methylpropanamide] came in with a concentration for a half-maximal effect (EC50) of 59.6 nM.
To `Cc1cc(/C=C/C#N)cc(C)c1Oc1nc(NC23CC(C#N)(C2)C3)nc2nn(CCC(F)F)c(C)c12` [Compound 102, (E)-3-((4-(4-(2-cyanovinyl)-2,6-dimethylphenoxy)-2-(3,3-difluoropropyl)-3-methyl-2H-pyrazolo[3,4-d]pyrimidin-6-yl)amino)bicyclo[1.1.1]pentane-1-carbonitrile] belongs 22.4 nM; to `Cc1cc(/C=C/C#N)cc(C)c1Oc1nc(NC23CC(C#N)(C2)C3)nc2c1c(C)nn2CCC(F)F` [Compound 103, (E)-3-((4-(4-(2-cyanovinyl)-2,6-dimethylphenoxy)-1-(3,3-difluoropropyl)-3-methyl-1H-pyrazolo[3,4-d]pyrimidin-6-yl)amino)bicyclo[1.1.1]pentane-1-carbonitrile], 221 nM; to `Cc1cc(/C=C/C#N)cc(C)c1Oc1nc(NC23CC(C#N)(C2)C3)nc2[nH]nc(C3CC3)c12` [Compound 104, (E)-3-((4-(4-(2-cyanovinyl)-2,6-dimethylphenoxy)-3-cyclopropyl-1H-pyrazolo[3,4-d]pyrimidin-6-yl)amino)bicyclo[1.1.1]pentane-1-carbonitrile], 141 nM.
To `C=Cc1n[nH]c2nc(NC34CC(C#N)(C3)C4)nc(Oc3c(C)cc(/C=C/C#N)cc3C)c12` [Compound 105, (E)-3-((4-(4-(2-cyanovinyl)-2,6-dimethylphenoxy)-3-vinyl-1H-pyrazolo[3,4-d]pyrimidin-6-yl)amino)bicyclo[1.1.1]pentane-1-carbonitrile] belongs 182 nM.
